In PubChem BioAssay (NCI) one finds TGI and GI50 data, which are given here for 9 compounds.

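Grown in 96-well plates, cells were treated for 48 hours with each compound at five concentrations. Insufficient inhibition: endpoint recorded as highest concentration tested. At the GI50, growth is halved. At the TGI there is no net growth.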

Holding throughout (assay): NCI tumour cell line growth inhibition, 48 h
Experiment [1] relates to KM12 colon.
Experiment [2] concerns COLO 205 colon.
Experiment [3] has as its system ACHN renal.
Experiment [4] has as its system A498 renal.
Experiment [5] deals with SF-539 CNS.
Experiment [6] has as its system A549 NSCLC.
Experiment [7] relates to OVCAR-5 ovarian.
Experiment [8] relates to UACC-62 melanoma.
Experiment [9] has as its system SN12C renal.
For experiment [10], the system named is EKVX NSCLC.

With `O=C(O)c1ccccc1NCn1c(=S)sc2ccccc21`, the TGI was > 100 µM in [1]; 56.7 µM in [2]; > 100 µM in experiment [3]; > 100 µM in experiment [4]; 48.9 µM in [5]; > 100 µM in experiment [6]. Besides, the TGI in experiment [7], in [8], in experiment [9] and in experiment [10] was > 100 µM in each case.

Take `CSC1=Nc2c(c(C)c(-c3ccccc3)n2COC(CO)CO)C2=NC(=O)CC(C)N12` (centres undefined): the GI50 in experiment [1], in experiment [2], in [3], in experiment [4], in [5] and in [6] was > 100 µM throughout. For the same compound, the GI50 in experiment [7], in experiment [8], in experiment [9] and in experiment [10] was > 100 µM each time. Besides, the TGI in experiment [1], in experiment [2], in experiment [3], in experiment [4], in experiment [5] and in experiment [6] was > 100 µM in each case. Also, the TGI in experiment [7], in experiment [8], in experiment [9] and in [10] was > 100 µM each time.

As to `C=CC(=O)Nc1cc2c(Nc3ccc(F)c(Cl)c3)ncnc2cc1C#CC(C)(C)N1CCN(C)CC1`, the GI50 in [1] was 2.36 µM; in experiment [2], 2.09 µM; in [3], 0.0779 µM; in [4], 1.21 µM; in experiment [5] it was 1.48 µM; in [6] it was 2.64 µM. Moreover, the GI50 in [7] is 1.04 µM; in [8], 2.94 µM; in experiment [9] it was 0.572 µM; in experiment [10], 0.246 µM. Moreover, the TGI in experiment [1] was determined as 5.75 µM; in experiment [2] it was 5.43 µM; in [3], 4.26 µM; in experiment [4], 3.94 µM; in [5] it was 2.99 µM; in [7], 6.17 µM. Further, the TGI was determined as 5.58 µM in [8], 2.51 µM in experiment [9] and 4.39 µM in [10].

As for `COc1ccccc1NC(=O)C1=C(C)NC(C)=C(C(=O)Nc2ccccc2OC)C1c1ccco1`, the TGI in experiment [1] is > 38.4 µM; in [2] it was 23 µM; in [3], > 100 µM; in experiment [4], 38.4 µM; in [5], 20.7 µM; in [6], > 100 µM. Besides, the TGI in [7] was > 100 µM; in [8], 22.9 µM; in experiment [9], 89.9 µM; in experiment [10], > 83.7 µM.

Regarding `CC[C@H]1OC(=O)[C@H](C)[C@@H](O[C@H]2C[C@@](C)(OC)[C@@H](O)[C@H](C)O2)[C@H](C)[C@@H](O[C@@H]2O[C@H](C)C[C@H](N(C)C)[C@H]2O)[C@](C)(OC)C/C(C)=C2/O[C@@]1(C)C=C2C`, the GI50 in [1] was 1.63 µM; in experiment [2] it was 1.68 µM; in [3], 1.76 µM; in experiment [4], 1.75 µM; in [5], 1.62 µM; in experiment [6] it was 1.63 µM. In addition, the GI50 is 1.68 µM in experiment [7], 1.76 µM in experiment [8], 1.64 µM in experiment [9] and 1.71 µM in experiment [10]. Further, the TGI is 3.11 µM in [1]; 3.69 µM in experiment [2]; 3.15 µM in [3]; 3.59 µM in [4]; 2.99 µM in [5]; 3.42 µM in [6]. Also, the TGI turned out to be 3.06 µM in [7], 3.18 µM in experiment [8], 3.02 µM in experiment [9] and 3.26 µM in [10].

In the case of `CCOC(=O)/C(=C\c1ccc2ccccc2c1)P(=O)(OCC)OCC`, the GI50 is 3.08 µM in experiment [1]; 2.26 µM in [2]; 2.31 µM in experiment [3]; 3.73 µM in experiment [4]; 2.29 µM in experiment [5]; 3.08 µM in experiment [6]. Also, the GI50 in [7] is 3.95 µM; in experiment [8], 2.33 µM; in experiment [9], 2.85 µM; in experiment [10], 4.28 µM. Moreover, the TGI in experiment [1] came to 10.9 µM; in experiment [2], 4.89 µM; in [3] it was 6.3 µM; in experiment [4], 10.9 µM; in experiment [5], 5.17 µM; in experiment [6], 11.6 µM. Further, the TGI in [7] turned out to be 13.9 µM; in experiment [8] it was 8.53 µM; in [9], 8.89 µM; in experiment [10], 16 µM.

For `CC1(C)OC(=O)C(=C2CCC(C(=O)Nc3cccc(C(F)(F)F)c3)N2)C(=O)O1` (centres undefined), the TGI in experiment [1], in experiment [2], in experiment [3], in experiment [4], in [5] and in experiment [6] was > 100 µM each time. Also, the TGI in experiment [7], in experiment [8], in experiment [9] and in experiment [10] was > 100 µM in each case.

Consider `COc1cccc(-c2nc3sccn3c2-c2ccnc(NCCCNS(=O)(=O)c3ccccc3)c2)c1`, for which the GI50 in experiment [1] is 2.97 µM; in experiment [2], 3.01 µM; in [3], 2.66 µM; in experiment [4], 2.92 µM; in experiment [5], 5.43 µM; in [6], 3.45 µM. Also, the GI50 is 5.45 µM in experiment [7], 1.98 µM in [8], 2.76 µM in experiment [9] and 3.68 µM in experiment [10]. Further, the TGI in [1], in experiment [2], in experiment [3], in experiment [4], in [5] and in experiment [6] was > 100 µM in each case. Also, the TGI in experiment [7] was > 100 µM; in experiment [8], 5.08 µM; in experiment [9], > 100 µM; in experiment [10], > 100 µM.

With `O=c1[nH]cnc2n[nH]nc12`, the TGI in [1] is > 100 µM; in [2], > 100 µM; in experiment [3] it was > 100 µM; in [4], > 100 µM; in [5], 23.9 µM; in experiment [6], > 100 µM. The TGI in experiment [7] is > 100 µM; in experiment [8], 6.8 µM; in experiment [9] it was > 100 µM; in experiment [10], > 100 µM.
